Values of other authors in patent EP1180016B1, “METHODS AND COMPOSITIONS FOR NON-VIRAL GENE THERAPY FOR TREATMENT OF HYPERPROLIFERATIVE DISEASES” (Introgen Therapeutics, Inc., priority 1999, dated 2000).
Counter-ions that a name gives are not always drawn. *1 amine or outer side, *2 acyl side, *3 side chain or, on linkers, in order; H or OH if unused. Where a SMILES comes first, the peptide text is derived from it. Bridges are numbered along the chain shown (N, C = ends). Roman numbers before positions name the chains, in order. [ ]: non-standard residue; d: D form. Actinocin(9to1) = Cc1c2oc3c(C)ccc(C(=O)[*:1])c3nc-2c(C(=O)[*:2])c(N)c1=O; NMeV = CN[C@H](C(=O)O)C(C)C; Sar = CNCC(=O)O

What was measured:
[1] = tested on: chronic myelogenous leukemia; conditions: previously untreated chronic myelogenous leukemia
[2] = physiological pH

Cc1c2oc3c(C)ccc(C(=O)N[C@@H]4C(=O)N[C@H](C(C)C)C(=O)N5CCC[C@H]5C(=O)N(C)CC(=O)N(C)[C@@H](C(C)C)C(=O)O[C@@H]4C)c3nc-2c(C(=O)N[C@@H]2C(=O)N[C@H](C(C)C)C(=O)N3CCC[C@H]3C(=O)N(C)CC(=O)N(C)[C@@H](C(C)C)C(=O)O[C@@H]2C)c(N)c1=O [Actinomycin D] (I: T[dV]P[Sar][NMeV] / II: T[dV]P[Sar][NMeV]; ester I:1-I:C, II:1-II:C; linker I:N-II:N via Actinocin(9to1))
dose excreted intact into the bile (in vivo): Half

CS(=O)(=O)OCCCCOS(C)(=O)=O [Busulfan, 1,4-butanediol dimethanesulfonate]
adults obtaining hematologic remission with regression or stabilization of organomegaly [1]: Approximately 90%

O=C(O)CCCc1ccc(N(CCCl)CCCl)cc1 [Chlorambucil, 4-[bis(2-chlorethyl)amino] benzenebutanoic acid]
terminal half-life of the parent drug (single oral doses of 0.6-[…]): 1.5 h

COc1cccc2c1C(=O)c1c(O)c3c(c(O)c1C2=O)C[C@@](O)(C(C)=O)C[C@@H]3O[C@H]1C[C@H](N)[C@H](O)[C@H](C)O1 [Daunorubicin, 5,12-Naphthacenedione, (8S-cis)-8-acetyl-10-[(3-amino-2,3,6-trideoxy-a-L-lyxo-hexanopyranosyl)oxy]-7,8,9,10-tetrahydro-6,8,11-trihydroxy-10-methoxy-, hydrochloride]
half-life of distribution (intravenous): 0.75 h

O=NN(CCCl)C(=O)NC1CCCCC1 [Lomustine, 1-(2-chloro-ethyl)-3-cyclohexyl-1 nitrosourea]
radioactivity excreted in the form of degradation products within 24 hours (oral radioactive lomustine, 30 mg/m^2 to 100 mg/m^2): about half | ionization [2]: relatively unionized
